Several values for one entry are separate records, joined by “and”; a condition that tells them apart may be missing. Equal values may be shown once.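 Following 48 hours of exposure in 96-well plates, responses at five concentrations were used to interpolate endpoints linearly. GI50 = concentration required for 50% inhibition of growth. Definition used: TGI = concentration required for complete inhibition of growth.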
Experiments:
Assay in all cases: inhibition of tumour cell growth, NCI panel, 48 h
HS 578T breast = system: HS 578T breast
SN12C renal = system: SN12C renal
BT-549 breast = system: BT-549 breast
RPMI-8226 leukemia = system: RPMI-8226 leukemia
MOLT-4 leukemia = system: MOLT-4 leukemia
PC-3 prostate = system: PC-3 prostate
HOP-92 NSCLC = system: HOP-92 NSCLC
DU-145 prostate = system: DU-145 prostate
MDA-MB-231 breast = system: MDA-MB-231 breast
OVCAR-3 ovarian = system: OVCAR-3 ovarian

SMILES	GI50 (HS 578T breast)	TGI (HS 578T breast)	GI50 (SN12C renal)	TGI (SN12C renal)	GI50 (BT-549 breast)	TGI (BT-549 breast)	GI50 (RPMI-8226 leukemia)	TGI (RPMI-8226 leukemia)	GI50 (MOLT-4 leukemia)	TGI (MOLT-4 leukemia)	GI50 (PC-3 prostate)	TGI (PC-3 prostate)	GI50 (HOP-92 NSCLC)	TGI (HOP-92 NSCLC)	GI50 (DU-145 prostate)	TGI (DU-145 prostate)	GI50 (MDA-MB-231 breast)	TGI (MDA-MB-231 breast)	GI50 (OVCAR-3 ovarian)	TGI (OVCAR-3 ovarian)
Cc1c(CN2CCC(Nc3ncnc4sc(CC(F)(F)F)cc34)CC2)ccc2c1cc(C#N)n2Cc1cn[nH]c1	6.23 µM and 10.1 µM	> 68.3 µM	8.76 µM	26.4 µM	2.72 µM and 3.16 µM	17.5 µM and > 27.4 µM	0.832 µM and 0.896 µM	4.47 µM	1.91 µM and 1.98 µM	9.55 µM	2.31 µM and 2.33 µM	18.9 µM and > 32.7 µM	3.81 µM and 1.09 µM	25.1 µM and > 25.9 µM	10.3 µM	23.9 µM and > 40.5 µM	2.32 µM and 4.04 µM	7.12 µM	10.4 µM	24 µM
O=C(N/N=C/c1ccc(O)cc1O)c1ccc(Nc2ccnc(C(F)(F)F)c2)cc1	4.4 µM	29 µM	24.4 µM	> 100 µM	22.2 µM	79.9 µM	> 100 µM	> 100 µM			> 45.1 µM	> 100 µM	15 µM	> 75.6 µM	21.9 µM	> 100 µM	5.83 µM	57.2 µM	0.35 µM	> 100 µM
CCOC(=O)[C@@H](C)C[C@H](Cc1ccccc1)NC(=O)c1csc([C@@H](C[C@H](C(C)C)N(C)C(=O)[C@H](CCC(C)C)NC(=O)[C@H]2CCCCN2C)OC(C)=O)n1	0.00922 µM	3.54 µM	0.0159 µM	4.59 µM	0.0119 µM	0.195 µM	< 0.00333 µM	3.83 µM	0.0167 µM	5.1 µM	< 0.00333 µM	7.15 µM	0.658 µM	23.3 µM	0.00892 µM	26.2 µM	0.00821 µM	0.398 µM	< 0.00333 µM	0.0335 µM
CCOC(=O)C(Cc1c[nH]c2cc([N+](=O)[O-])ccc12)(NC(C)=O)C(=O)OCC	61.3 µM	> 798 µM	401 µM	> 1000 µM	64.9 µM and 75 µM	> 682 µM	45 µM		35.2 µM			> 1000 µM	47.5 µM	141 µM	> 542 µM	> 1000 µM	167 µM	> 715 µM	> 1000 µM	> 1000 µM
CCc1oc2ccccc2c1C(=O)c1cc(Br)c(O)c(Br)c1		59 µM		67.3 µM		71.4 µM		75.5 µM		59.7 µM		43.6 µM		64.2 µM		> 100 µM		44.7 µM		43.2 µM
Cc1ccc(C(=O)N/N=C/c2cccc(Oc3ccccc3)c2)cn1	6.74 µM	> 100 µM	17.3 µM	> 100 µM	5.37 µM	> 55.6 µM	2.66 µM	8.58 µM	3.83 µM	34.5 µM	7.75 µM	> 100 µM	12.7 µM	> 100 µM	18.7 µM	> 100 µM	22.9 µM	> 100 µM	5.96 µM	> 100 µM
CC(=O)Oc1cccc2c1C(=O)C(Br)(Br)CCC2		39.7 µM		19.7 µM		4.19 µM		7.34 µM		13.8 µM		16 µM		10.4 µM		26.6 µM		8.41 µM		13.3 µM
C#CC[C@H](c1nc2cc(Cl)ccc2c(=O)n1Nc1ccccc1)N(CCCN)C(=O)c1cccc(Cl)c1F	0.162 µM	1.19 µM	0.205 µM	1.98 µM	0.798 µM	3.33 µM	0.131 µM	1.16 µM	0.264 µM	2.8 µM	0.196 µM	3.16 µM	0.179 µM	1.65 µM	0.215 µM	0.75 µM	0.107 µM	0.601 µM	0.242 µM	1.19 µM
c1cncc(CNc2ccccc2-c2nnc(Nc3ccc4c(c3)OCCO4)o2)c1	0.232 µM	> 100 µM	0.482 µM	> 100 µM	0.861 µM	53 µM	0.28 µM	17.7 µM	0.435 µM	15.5 µM	0.128 µM	> 100 µM	0.222 µM	20 µM	0.244 µM	1.54 µM	0.644 µM	> 100 µM	0.0452 µM	0.228 µM
CCOc1cc2ncc(C#N)c(Nc3ccc(F)c(Cl)c3)c2cc1NC(=O)/C=C/CN(C)C	0.381 µM	> 10 µM	0.173 µM	> 6.03 µM	0.665 µM	> 7.78 µM	1.04 µM	3.33 µM	0.716 µM	> 4.91 µM	1.19 µM	> 9 µM	0.254 µM	> 4.39 µM	0.05 µM	1.62 µM	0.882 µM	5.07 µM	0.216 µM	1.77 µM
Cc1cc2c(C(N)=O)cccc2n1-c1nc2c(c(NCc3ccccc3)n1)CCCN2	0.262 µM	0.745 µM	0.134 µM	0.335 µM	0.295 µM	0.695 µM	0.0401 µM	0.325 µM	0.241 µM	1.16 µM	0.287 µM	0.825 µM	0.261 µM	0.541 µM	0.29 µM	0.783 µM	0.186 µM	0.394 µM	0.206 µM	0.41 µM
Cc1ccc(NC2=C(Sc3ccc(Cl)cc3)C(=O)N(Cc3ccccc3)C2=O)cc1Cl	3.37 µM	18.7 µM	12.3 µM	29 µM	10.4 µM	24 µM	12.7 µM	40.8 µM	10.5 µM	26 µM	5.47 µM	19.7 µM	4.59 µM	17 µM	3.98 µM	24.6 µM	3.84 µM	14.7 µM	2.09 µM	5.31 µM
O=C1C(Cl)=C(N2CCOCC2)C(=O)c2ccccc21	20.8 µM	69.6 µM	10.7 µM	23.1 µM	10.8 µM	23.2 µM	2.63 µM	7.87 µM			9.38 µM	23.7 µM	1.52 µM	3 µM	17.7 µM	31.9 µM	1.75 µM	3.72 µM	2.04 µM	3.58 µM

Source: PubChem BioAssay (NCI)
